Structures can show the parent of a compound that is named as a salt.
Legend:
[1] = test system: marine bacteria (26 strains); assay: Disk inhibition assay; assay type: cell-based, marine bacteria isolated from Singapore fouling communities
How it was run: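 Tablets or capsule powders suspended in sterile water at 2 mg ml^−1 and loaded onto disks; antibiotic discs (Amp, Ery, Str, Tet) served as comparison. Disks placed on swabbed lawns on Marine Agar, incubated overnight in the dark at 30° C. Zone of clearing diameter measured by calipers; three replicates on three occasions.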

marine bacteria = assay: Growth assay (absorbance, 96-well plates); assay type: cell-based, marine bacteria isolated from Singapore fouling communities; conditions: 25 μg ml^−1
Method: The dried powder was re-suspended in sterile deionized water and made up to 2 mg ml^−1.
The same bacterial strains were used and cultured the same way as in disc inhibition assay. Cells were harvested by centrifugation at 300 rpm for 10 min. The supernatant was discarded and the pellet re-suspended using sterile seawater collected from St. John's island, Singapore. The concentration of bacterial cells was adjusted to an absorbance of approximately 0.6 using a spectrophotometer (Beckman DU530) at wavelength 600 nm.
The growth with response to the pharmaceuticals was assumed to be proportional to the absorbance of the bacteria. […] To each well 25 μl of each drug solution (concentration adjusted to 100 μg ml^−1) were pipetted into three wells followed by 10 μl of broth and 65 μl of sterile seawater. For wells that were to contain bacteria, 60 μl of sterile seawater was used instead. All wells used for growth studies were prepared in triplicate and inoculated with 5 μl of the bacterial suspension. Blanks consisting of the respective volumes of pharmaceutical with Marine Broth and distilled water, if needed, were prepared in triplicate and inoculated with 5 μl of sterile seawater.
The absorbance (A600) of each well was read in a plate reader (Sunrise Tecan Model F039300) immediately (time=0 hours) and after 1, 2, 3, 4, 20, 23 and 28 hours. Plates were incubated overnight inside a moistened airtight container.
Any changes in absorbance were plotted and compared with control. The mean absorbance (mean bac) from the bacteria was obtained by deducting the absorbance values of blank wells (containing seawater and broth only) from that for the control wells (containing bacteria in seawater and broth only). The absorbance arising from the drugs was obtained from the 0 hr reading for wells containing drugs and bacteria, minus the wells with drugs alone (mean “drug”). The growth assays were repeated three times.

Structure (SMILES): CN1CCN(CCCN2c3ccccc3Sc3ccc(C(F)(F)F)cc32)CC1 [TFZ, Trifluoperazine hydrochloride]
- Number of strains inhibited out of 26 strains ([1]; 25 μg per disc): 22
- Strains showing no inhibition (of 26) ([1]; 50 μg per disc): 2
- Antibiotic activity against marine bacteria ([1]; 25 or 50 μg per disc, in words): strongest activity
- Antibiotic activity against marine bacteria ([1]; crude rank, best (1) to worst (8)): 3
- zone of inhibition at 25 µg/disc ([1]; strain 1 (Rhodovulum), 25 μg per disc): < 5 mm
- zone of inhibition at 50 µg/disc ([1]; strain 1 (Rhodovulum), 50 μg per disc): < 5 mm
- zone of inhibition at 25 µg/disc ([1]; strain 2 (Erythrobacter), 25 μg per disc): < 5 mm
- zone of inhibition at 50 µg/disc ([1]; strain 2 (Erythrobacter), 50 μg per disc): 10 to 19 mm
- zone of inhibition at 25 µg/disc ([1]; strain 3 (Erythrobacter), 25 μg per disc): 10 to 19 mm
- zone of inhibition at 50 µg/disc ([1]; strain 3 (Erythrobacter), 50 μg per disc): 10 to 19 mm
- zone of inhibition at 25 µg/disc ([1]; strain 4 (Bacillus), 25 μg per disc): 10 to 19 mm
- zone of inhibition at 50 µg/disc ([1]; strain 4 (Bacillus), 50 μg per disc): 10 to 19 mm
- zone of inhibition at 25 µg/disc ([1]; strain 6 (Vibrio), 25 μg per disc): 5 to 9 mm
- zone of inhibition at 50 µg/disc ([1]; strain 6 (Vibrio), 50 μg per disc): 5 to 9 mm
- zone of inhibition at 25 µg/disc ([1]; strain 7 (Vibrio), 25 μg per disc): < 5 mm
- zone of inhibition at 50 µg/disc ([1]; strain 7 (Vibrio), 50 μg per disc): 5 to 9 mm
- zone of inhibition at 25 µg/disc ([1]; strain 8 (Bacillus), 25 μg per disc): 5 to 9 mm
- zone of inhibition at 50 µg/disc ([1]; strain 8 (Bacillus), 50 μg per disc): 10 to 19 mm
- zone of inhibition at 25 µg/disc ([1]; strain 9 (Bacillus), 25 μg per disc): 10 to 19 mm
- zone of inhibition at 50 µg/disc ([1]; strain 9 (Bacillus), 50 μg per disc): 10 to 19 mm
- zone of inhibition at 25 µg/disc ([1]; strain 10 (Halobacillus), 25 μg per disc): 10 to 19 mm
- zone of inhibition at 50 µg/disc ([1]; strain 10 (Halobacillus), 50 μg per disc): 10 to 19 mm
- zone of inhibition at 25 µg/disc ([1]; strain 11 (Pseudomonas), 25 μg per disc): 10 to 19 mm
- zone of inhibition at 50 µg/disc ([1]; strain 11 (Pseudomonas), 50 μg per disc): 10 to 19 mm
- zone of inhibition at 25 µg/disc ([1]; strain 12 (Gordonia), 25 μg per disc): 10 to 19 mm
- zone of inhibition at 50 µg/disc ([1]; strain 12 (Gordonia), 50 μg per disc): 10 to 19 mm
- zone of inhibition at 25 µg/disc ([1]; strain 13 (Bacillus), 25 μg per disc): 10 to 19 mm
- zone of inhibition at 50 µg/disc ([1]; strain 13 (Bacillus), 50 μg per disc): 10 to 19 mm
- zone of inhibition at 25 µg/disc ([1]; strain 14 (Vibrio), 25 μg per disc): < 5 mm
- zone of inhibition at 50 µg/disc ([1]; strain 14 (Vibrio), 50 μg per disc): < 5 mm
- zone of inhibition at 25 µg/disc ([1]; strain 16 (Pseudoalteromonas), 25 μg per disc): 5 to 9 mm
- zone of inhibition at 50 µg/disc ([1]; strain 16 (Pseudoalteromonas), 50 μg per disc): 10 to 19 mm
- zone of inhibition at 25 µg/disc ([1]; strain 17 (Gordonia), 25 μg per disc): 5 to 9 mm
- zone of inhibition at 50 µg/disc ([1]; strain 17 (Gordonia), 50 μg per disc): 10 to 19 mm
- zone of inhibition at 25 µg/disc ([1]; strain 18 (Microbacterium), 25 μg per disc): 10 to 19 mm
- zone of inhibition at 50 µg/disc ([1]; strain 18 (Microbacterium), 50 μg per disc): 10 to 19 mm
- zone of inhibition at 25 µg/disc ([1]; strain 19 (Erythrobacter), 25 μg per disc): 10 to 19 mm
- zone of inhibition at 50 µg/disc ([1]; strain 19 (Erythrobacter), 50 μg per disc): 10 to 19 mm
- zone of inhibition at 25 µg/disc ([1]; strain 20, 25 μg per disc): 10 to 19 mm
- zone of inhibition at 50 µg/disc ([1]; strain 20, 50 μg per disc): 20 to 29 mm
- zone of inhibition at 25 µg/disc ([1]; strain 21, 25 μg per disc): 5 to 9 mm
- zone of inhibition at 50 µg/disc ([1]; strain 21, 50 μg per disc): 5 to 9 mm
- zone of inhibition at 25 µg/disc ([1]; strain 22, 25 μg per disc): 10 to 19 mm
- zone of inhibition at 50 µg/disc ([1]; strain 22, 50 μg per disc): 20 to 29 mm
- zone of inhibition at 25 µg/disc ([1]; strain 24, 25 μg per disc): 10 to 19 mm
- zone of inhibition at 50 µg/disc ([1]; strain 24, 50 μg per disc): 10 to 19 mm
- zone of inhibition at 25 µg/disc ([1]; strain 26, 25 μg per disc): 5 to 9 mm
- zone of inhibition at 50 µg/disc ([1]; strain 26, 50 μg per disc): 10 to 19 mm
- zone of inhibition at 25 µg/disc ([1]; strain 27, 25 μg per disc): 10 to 19 mm
- zone of inhibition at 50 µg/disc ([1]; strain 27, 50 μg per disc): 10 to 19 mm
- zone of inhibition at 25 µg/disc ([1]; strain 28, 25 μg per disc): 5 to 9 mm
- zone of inhibition at 50 µg/disc ([1]; strain 28, 50 μg per disc): 10 to 19 mm
- zone of inhibition at 25 µg/disc ([1]; strain 29, 25 μg per disc): 10 to 19 mm
- zone of inhibition at 50 µg/disc ([1]; strain 29, 50 μg per disc): 10 to 19 mm
- zone of inhibition at 25 µg/disc ([1]; strain 30, 25 μg per disc): 10 to 19 mm
- zone of inhibition at 50 µg/disc ([1]; strain 30, 50 μg per disc): 10 to 19 mm
- Number of strains with strongly inhibited growth (marine bacteria; 25 strains of Table 5): 14
- Inhibition of bacterial growth (marine bacteria; strain 1 (Rhodovulum)): 0
- Inhibition of bacterial growth (marine bacteria; strain 2 (Erythrobacter)): 0
- Inhibition of bacterial growth (marine bacteria; strain 3 (Erythrobacter)): +++ (+++ denotes little or no growth, p < 0.001)
- Inhibition of bacterial growth (marine bacteria; strain 4 (Bacillus)): +++ (+++ denotes little or no growth, p < 0.001)
- Inhibition of bacterial growth (marine bacteria; strain 6 (Vibrio)): + (+ denotes growth present but inhibited, p < 0.01)
- Inhibition of bacterial growth (marine bacteria; strain 7 (Vibrio)): + (+ denotes growth present but inhibited, p < 0.01)
- Inhibition of bacterial growth (marine bacteria; strain 8 (Bacillus)): + (+ denotes growth present but inhibited, p < 0.01)
- Inhibition of bacterial growth (marine bacteria; strain 9 (Bacillus)): +++ (+++ denotes little or no growth, p < 0.001)
- Inhibition of bacterial growth (marine bacteria; strain 10 (Halobacillus)): +++ (+++ denotes little or no growth, p < 0.001)
- Inhibition of bacterial growth (marine bacteria; strain 11 (Pseudomonas)): + (+ denotes growth present but inhibited, p < 0.01)
- Inhibition of bacterial growth (marine bacteria; strain 12 (Gordonia)): +++ (+++ denotes little or no growth, p < 0.001)
- Inhibition of bacterial growth (marine bacteria; strain 13 (Bacillus)): +++ (+++ denotes little or no growth, p < 0.001)
- Inhibition of bacterial growth (marine bacteria; strain 14 (Vibrio)): 0
- Inhibition of bacterial growth (marine bacteria; strain 16 (Pseudoalteromonas)): 0
- Inhibition of bacterial growth (marine bacteria; strain 17 (Gordonia)): +++ (+++ denotes little or no growth, p < 0.001)
- Inhibition of bacterial growth (marine bacteria; strain 18 (Microbacterium)): +++ (+++ denotes little or no growth, p < 0.001)
- Inhibition of bacterial growth (marine bacteria; strain 19 (Erythrobacter)): +++ (+++ denotes little or no growth, p < 0.001)
- Inhibition of bacterial growth (marine bacteria; strain 20): + (+ denotes growth present but inhibited, p < 0.01)
- Inhibition of bacterial growth (marine bacteria; strain 21): 0
- Inhibition of bacterial growth (marine bacteria; strain 24): + (+ denotes growth present but inhibited, p < 0.01)
- Inhibition of bacterial growth (marine bacteria; strain 26): 0
- Inhibition of bacterial growth (marine bacteria; strain 27): +++ (+++ denotes little or no growth, p < 0.001)
- Inhibition of bacterial growth (marine bacteria; strain 28): +++ (+++ denotes little or no growth, p < 0.001)
- Inhibition of bacterial growth (marine bacteria; strain 29): +++ (+++ denotes little or no growth, p < 0.001)
- Inhibition of bacterial growth (marine bacteria; strain 30): +++ (+++ denotes little or no growth, p < 0.001)
